Assay results taken from patent US9593108B2, “Compounds and methods for antiviral treatment” (PTC Therapeutics, Inc., priority 2009, dated 2017).

Key:
[1] = tested on: HCV replicon RNA (GenBank Accession No. AJ242654); experiment: HCV Replicon Assay (replicon RNA reduction and/or Fluc reporter signal); format: cell-based, Hepatitis C virus; settings: Hepatitis C virus, 72 h, replicon-containing cells cultured with test compound for up to 3 days
In short: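 Bicistronic replicon-containing cells cultured with compound for up to 3 days, with interferon as positive control. Inhibition quantified by replicon RNA reduction and/or Fluc reporter signal; IC50 values generally derived from replicon RNA reduction.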

For `CCc1cnc2c(c1)c(C#N)c(-c1ccc(S(=O)(=O)N[C@@H](C)C(F)(F)F)cn1)n2-c1ccc(F)cc1` [Cpd 510, 6-[3-cyano-5-ethyl-1-(4-fluorophenyl)-1H-pyrrolo[2,3-b]pyridin-2-yl]-N-[(2S)-1,1,1-trifluoropropan-2-yl]pyridine-3-sulfonamide], the melting point was 212 to 214 °C and the IC50 [1] was < 500 nM.

For `Cc1cc2c(cn1)c(C#N)c(-c1ncc(S(=O)(=O)NC(CF)CF)cn1)n2C1CCC1` [Cpd 27, 2-(3-cyano-1-cyclobutyl-6-methyl-1H-pyrrolo[3,2-c]pyridin-2-yl)-N-(1,3-difluoropropan-2-yl)pyrimidine-5-sulfonamide], the melting point was 234 to 236 °C and the IC50 [1] was < 500 nM.

For `CC(C)NS(=O)(=O)c1cnc(-c2c(C#N)c3cnc(Cl)cc3n2C2CCCC2)nc1` [Cpd 85, 2-(6-chloro-3-cyano-1-cyclopentyl-1H-pyrrolo[3,2-c]pyridin-2-yl)-N-(propan-2-yl)pyrimidine-5-sulfonamide], the melting point was 249 to 250 °C and the IC50 [1] was < 500 nM.

With `C[C@H](NS(=O)(=O)c1ccc(-c2c(C#N)c3cc(N(C)C)cnc3n2C2CCC2)nc1)C(F)(F)F` [Cpd 497, 6-[3-cyano-1-cyclobutyl-5-(dimethylamino)-1H-pyrrolo[2,3-b]pyridin-2-yl]-N-[(2S)-1,1,1-trifluoropropan-2-yl]pyridine-3-sulfonamide] the melting point was 183 to 185 °C and the IC50 [1] was < 500 nM.

With `COc1cc2c(C#N)c(-c3ccc(S(=O)(=O)N[C@H](C)C(F)(F)F)cn3)n(C3CCC3)c2nc1C` [Cpd 243, 6-(3-cyano-1-cyclobutyl-5-methoxy-6-methyl-1H-pyrrolo[2,3-b]pyridin-2-yl)-N-[(2R)-1,1,1-trifluoropropan-2-yl]pyridine-3-sulfonamide] the melting point was 175 to 177 °C and the IC50 [1] was 2000 to 5000 nM.

In the case of `CC1(NS(=O)(=O)c2ccc(-c3c(C#N)c4cnc(Cl)cc4n3C3CCC3)nc2)CC1` [Cpd 99, 6-(6-chloro-3-cyano-1-cyclobutyl-1H-pyrrolo[3,2-c]pyridin-2-yl)-N-(1-methylcyclopropyl)pyridine-3-sulfonamide], the melting point is reported as 167 to 168 °C and the IC50 [1] is reported as < 500 nM.

In the case of `COc1cc2c(C#N)c(-c3ccc(S(=O)(=O)N[C@@H](C)C(F)(F)F)cn3)n(C3CCC3)c2nc1C` [Cpd 242, 6-(3-cyano-1-cyclobutyl-5-methoxy-6-methyl-1H-pyrrolo[2,3-b]pyridin-2-yl)-N-[(2S)-1,1,1-trifluoropropan-2-yl]pyridine-3-sulfonamide], the melting point is reported as 175 to 177 °C and the IC50 [1] is reported as < 500 nM.

With `CCc1cc2c(C#N)c(-c3ccc(NS(=O)(=O)C(C)C)cc3)n(C3CCC3)c2cn1` [Cpd 220, N-[4-(3-cyano-1-cyclobutyl-5-ethyl-1H-pyrrolo[2,3-c]pyridin-2-yl)phenyl]propane-2-sulfonamide] the melting point was 160 to 165 °C and the IC50 [1] was < 500 nM.

With `CC(C)(NS(=O)(=O)c1ccc(-c2c(C#N)c3cc(C(F)(F)F)cnc3n2C2CCCCC2)cc1)C(F)(F)F` [Cpd 418, 4-[3-cyano-1-cyclohexyl-5-(trifluoromethyl)-1H-pyrrolo[2,3-b]pyridin-2-yl]-N-(1,1,1-trifluoro-2-methylpropan-2-yl)benzenesulfonamide] the melting point was 203 to 205 °C and the IC50 [1] was < 500 nM.

With `C[C@@H](NS(=O)(=O)c1ccc(-c2c(C#N)c3cc(OC(F)F)cnc3n2C2CCC2)nc1)C(F)(F)F` [Cpd 197, 6-[3-cyano-1-cyclobutyl-5-(difluoromethoxy)-1H-pyrrolo[2,3-b]pyridin-2-yl]-N-[(2R)-1,1,1-trifluoropropan-2-yl]pyridine-3-sulfonamide] the melting point was 149 to 151 °C and the IC50 [1] was < 500 nM.

In the case of `Cc1cnc2c(c1)c(C#N)c(-c1ccc(S(=O)(=O)N[C@@H](C)C(F)(F)F)cn1)n2-c1ccc(F)c(F)c1` [Cpd 505, 6-[3-cyano-1-(3,4-difluorophenyl)-5-methyl-1H-pyrrolo[2,3-b]pyridin-2-yl]-N-[(2S)-1,1,1-trifluoropropan-2-yl]pyridine-3-sulfonamide], the melting point is reported as 250 to 252 °C and the IC50 [1] is reported as < 500 nM.

With `C[C@@H](NS(=O)(=O)c1ccc(-c2c(C#N)c3cc(C4CC4)cnc3n2C2CCC2)cc1)C(F)(F)F` [Cpd 116, 4-(3-cyano-1-cyclobutyl-5-cyclopropyl-1H-pyrrolo[2,3-b]pyridin-2-yl)-N-[(2R)-1,1,1-trifluoropropan-2-yl]benzenesulfonamide] the melting point was 190 to 195 °C and the IC50 [1] was < 500 nM.

For `C[C@H](NS(=O)(=O)c1ccc(-c2c(C#N)c3cc(C4CC4)ncc3n2C2CCC2)nc1)C(F)(F)F` [Cpd 223, 6-(3-cyano-1-cyclobutyl-5-cyclopropyl-1H-pyrrolo[2,3-c]pyridin-2-yl)-N-[(2S)-1,1,1-trifluoropropan-2-yl]pyridine-3-sulfonamide], the melting point was 200 to 205 °C and the IC50 [1] was 500 to 2000 nM.

`COc1ccc(-n2c(-c3ccc(S(=O)(=O)N[C@@H](C)C(F)(F)F)cn3)c(C#N)c3cc(C(F)(F)F)cnc32)nc1` [Cpd 332, 6-[3-cyano-1-(5-methoxypyridin-2-yl)-5-(trifluoromethyl)-1H-pyrrolo[2,3-b]pyridin-2-yl]-N-[(2S)-1,1,1-trifluoropropan-2-yl]pyridine-3-sulfonamide] gave a melting point of 203 to 206 °C and an IC50 [1] of 500 to 2000 nM.

In the case of `Cc1cnc2c(c1)c(C#N)c(-c1ccc(S(=O)(=O)N[C@@H](C)C(F)(F)F)cc1)n2C1CCCC1` [Cpd 263, 4-(3-cyano-1-cyclopentyl-5-methyl-1H-pyrrolo[2,3-b]pyridin-2-yl)-N-[(2S)-1,1,1-trifluoropropan-2-yl]benzenesulfonamide], the melting point is reported as 191 to 196 °C and the IC50 [1] is reported as < 500 nM.

For `N#Cc1c(-c2ncc(S(=O)(=O)NC(CF)CF)cn2)n(C2CCCC2)c2cc(Cl)ncc12` [Cpd 86, 2-(6-chloro-3-cyano-1-cyclopentyl-1H-pyrrolo[3,2-c]pyridin-2-yl)-N-(1,3-difluoropropan-2-yl)pyrimidine-5-sulfonamide], the melting point was 224 to 226 °C and the IC50 [1] was < 500 nM.

In the case of `C[C@H](NS(=O)(=O)c1ccc(-c2c(C#N)c3cc(C(F)(F)F)cnc3n2C2CCCCC2)nc1)C(F)(F)F` [Cpd 415, 6-[3-cyano-1-cyclohexyl-5-(trifluoromethyl)-1H-pyrrolo[2,3-b]pyridin-2-yl]-N-[(2S)-1,1,1-trifluoropropan-2-yl]pyridine-3-sulfonamide], the melting point is reported as 204 to 206 °C and the IC50 [1] is reported as < 500 nM.

For `CC(C)S(=O)(=O)Nc1ccc(-c2c(C(N)=O)c3cc(C(F)(F)F)cnc3n2C2CCCCC2)cc1` [Cpd 446, 1-cyclohexyl-2-{4-[(propan-2-ylsulfonyl)amino]phenyl}-5-(trifluoromethyl)-1H-pyrrolo[2,3-b]pyridine-3-carboxamide], the melting point was 203 to 205 °C and the IC50 [1] was < 500 nM.

With `CCCn1c(-c2ccc(S(=O)(=O)N[C@@H](C)C(F)(F)F)cn2)c(C#N)c2cc(C)cnc21` [Cpd 492, 6-(3-cyano-5-methyl-1-propyl-1H-pyrrolo[2,3-b]pyridin-2-yl)-N-[(2S)-1,1,1-trifluoropropan-2-yl]pyridine-3-sulfonamide] the melting point was 145 to 149 °C and the IC50 [1] was < 500 nM.

For `CC1(NS(=O)(=O)c2ccc(-c3c(C#N)c4cc(C(F)(F)F)cnc4n3C3CCC3)nc2)CC1` [Cpd 398, 6-[3-cyano-1-cyclobutyl-5-(trifluoromethyl)-1H-pyrrolo[2,3-b]pyridin-2-yl]-N-(1-methylcyclopropyl)pyridine-3-sulfonamide], the melting point was 172 to 175 °C and the IC50 [1] was < 500 nM.

For `Cc1cc2c(cn1)c(C#N)c(-c1ccc(S(=O)(=O)NC(CF)CF)cn1)n2C1CCC1` [Cpd 26, 6-(3-cyano-1-cyclobutyl-6-methyl-1H-pyrrolo[3,2-c]pyridin-2-yl)-N-(1,3-difluoropropan-2-yl)pyridine-3-sulfonamide], the melting point was 216 to 218 °C and the IC50 [1] was 500 to 2000 nM.

For `Cc1cnc2c(c1)c(C#N)c(-c1ccc(S(=O)(=O)N[C@@H](C)C(F)(F)F)cn1)n2-c1nc(C#N)cs1` [Cpd 514, 6-[3-cyano-1-(4-cyano-1,3-thiazol-2-yl)-5-methyl-1H-pyrrolo[2,3-b]pyridin-2-yl]-N-[(2S)-1,1,1-trifluoropropan-2-yl]pyridine-3-sulfonamide], the melting point was 259 to 261 °C and the IC50 [1] was 500 to 2000 nM.

In the case of `CCc1cnc2c(c1)c(C#N)c(-c1ccc(S(=O)(=O)NC3(C(F)(F)F)CC3)cn1)n2C1CCC1` [Cpd 184, 6-(3-cyano-1-cyclobutyl-5-ethyl-1H-pyrrolo[2,3-b]pyridin-2-yl)-N-[1-(trifluoromethyl)cyclopropyl]pyridine-3-sulfonamide], the melting point is reported as 216 to 221 °C and the IC50 [1] is reported as < 500 nM.

In the case of `C[C@H](NS(=O)(=O)c1ccc(-c2c(C#N)c3cc(C4CC4)cnc3n2C2CCC2)nc1)C(F)(F)F` [Cpd 117, 6-(3-cyano-1-cyclobutyl-5-cyclopropyl-1H-pyrrolo[2,3-b]pyridin-2-yl)-N-[(2S)-1,1,1-trifluoropropan-2-yl]pyridine-3-sulfonamide], the melting point is reported as 136 to 144 °C and the IC50 [1] is reported as < 500 nM.

In the case of `COc1cnc2c(c1)c(C#N)c(-c1ccc(S(=O)(=O)N(C(C)=O)[C@@H](C)C(F)(F)F)cn1)n2C1CCCC1` [Cpd 257, N-{[6-(3-cyano-1-cyclopentyl-5-methoxy-1H-pyrrolo[2,3-b]pyridin-2-yl)pyridin-3-yl]sulfonyl}-N-[(2S)-1,1,1-trifluoropropan-2-yl]acetamide], the melting point is reported as 169 to 173 °C and the IC50 [1] is reported as < 500 nM.

With `NC(=O)c1c(-c2ccc(S(=O)(=O)NC3(C(F)(F)F)CC3)cc2)n(C2CCCC2)c2ncc(C(F)(F)F)cc12` [Cpd 408, 1-cyclopentyl-5-(trifluoromethyl)-2-(4-{[1-(trifluoromethyl)cyclopropyl]sulfamoyl}phenyl)-1H-pyrrolo[2,3-b]pyridine-3-carboxamide] the melting point was 277 to 279 °C and the IC50 [1] was < 500 nM.

In the case of `C[C@H](NS(=O)(=O)c1ccc(-c2c(C(N)=O)c3cc(C(F)(F)F)cnc3n2C2CCCC2)nc1)C(F)(F)F` [Cpd 409, 1-cyclopentyl-5-(trifluoromethyl)-2-(5-{[(2S)-1,1,1-trifluoropropan-2-yl]sulfamoyl}pyridin-2-yl)-1H-pyrrolo[2,3-b]pyridine-3-carboxamide], the melting point is reported as 261 to 263 °C and the IC50 [1] is reported as < 500 nM.
